From ChEMBL document CHEMBL1150882, “Nitrogen-containing furanose and pyranose analogues from Hyacinthus orientalis” (J Nat Prod, 1998)

What was measured:
[1] = biological target: T1, Tissue alpha-L-fucosidase (Bos taurus, UniProt Q2KIM0); test: Inhibition of bovine epididymis alpha-L-fucosidase at 1000 uM
T1 sequence (Q2KIM0 whole entry): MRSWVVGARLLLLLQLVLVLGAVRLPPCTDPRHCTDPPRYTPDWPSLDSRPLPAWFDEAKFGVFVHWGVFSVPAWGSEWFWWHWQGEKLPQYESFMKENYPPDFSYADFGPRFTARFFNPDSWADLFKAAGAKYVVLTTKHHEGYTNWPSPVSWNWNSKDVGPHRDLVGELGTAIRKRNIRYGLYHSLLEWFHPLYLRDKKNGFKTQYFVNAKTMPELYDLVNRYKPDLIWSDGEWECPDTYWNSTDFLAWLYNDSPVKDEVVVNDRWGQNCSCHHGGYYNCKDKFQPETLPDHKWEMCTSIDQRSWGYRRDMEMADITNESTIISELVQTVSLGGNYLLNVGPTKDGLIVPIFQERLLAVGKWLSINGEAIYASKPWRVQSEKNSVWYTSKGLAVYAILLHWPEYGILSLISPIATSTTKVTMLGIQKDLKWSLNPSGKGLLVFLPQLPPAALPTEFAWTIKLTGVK

Oryza sativa = details: 1000 uM
Description: Inhibition of rice alpha-glucosidase at 1000 uM

[2] = biological target: Lysosomal alpha-glucosidase (Rattus norvegicus) (UniProt Q6P7A9); details: Wistar, 1000 uM
Description: Inhibition of Wistar rat intestinal maltase at 1000 uM

[3] = biological target: Sucrase-isomaltase, intestinal (Rattus norvegicus) (UniProt P23739); details: Wistar, 1000 uM
Description: Inhibition of Wistar rat intestinal isomaltase at 1000 uM

[4] = biological target: Sucrase-isomaltase, intestinal (Rattus norvegicus) (UniProt P23739); details: Wistar, 1000 uM; remark: listed apart in the source
Description: Inhibition of Wistar rat intestinal sucrase at 1000 uM

[5] = biological target: Lysosomal alpha-glucosidase (Rattus norvegicus) (UniProt Q6P7A9); details: Wistar, 1000 uM; remark: listed apart in the source
Description: Inhibition of Wistar rat liver lysosomal alpha-glucosidase at 1000 uM

[6] = test system: Caldicellulosiruptor saccharolyticus; details: 1000 uM
Description: Inhibition of Caldocellum saccharolyticum beta-glucosidase at 1000 uM

Bos taurus = species on record: Bos taurus; details: 1000 uM
Description: Inhibition of bovine liver beta-galactosidase at 1000 uM

[7] = biological target: Lactase/phlorizin hydrolase (Rattus norvegicus) (UniProt Q02401); details: Wistar, 1000 uM
Description: Inhibition of Wistar rat intestinal lactase at 1000 uM

[8] = biological target: T2, Uncharacterized protein (Sus scrofa) (UniProt I3LIR5); details: 1000 uM
T2 sequence (whole entry): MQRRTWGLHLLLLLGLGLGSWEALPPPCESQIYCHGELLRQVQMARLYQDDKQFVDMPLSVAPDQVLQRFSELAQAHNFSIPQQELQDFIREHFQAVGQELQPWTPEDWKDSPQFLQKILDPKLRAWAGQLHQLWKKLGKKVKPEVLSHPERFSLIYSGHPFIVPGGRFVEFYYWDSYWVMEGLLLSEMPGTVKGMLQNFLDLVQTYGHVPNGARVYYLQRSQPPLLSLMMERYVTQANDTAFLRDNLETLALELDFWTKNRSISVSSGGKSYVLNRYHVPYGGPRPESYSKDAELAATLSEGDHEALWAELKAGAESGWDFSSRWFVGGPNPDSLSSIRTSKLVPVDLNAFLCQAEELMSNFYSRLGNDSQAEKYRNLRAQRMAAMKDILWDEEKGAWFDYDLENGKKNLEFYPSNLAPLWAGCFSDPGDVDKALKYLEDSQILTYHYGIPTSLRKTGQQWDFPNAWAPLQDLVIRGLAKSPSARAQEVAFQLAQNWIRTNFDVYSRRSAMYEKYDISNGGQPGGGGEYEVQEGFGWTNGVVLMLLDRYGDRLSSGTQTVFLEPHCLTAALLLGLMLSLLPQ
Description: Inhibition of pig kidney alpha alpha-trehalase at 1000 uM

Rattus norvegicus = species on record: Rattus norvegicus; details: Wistar, 1000 uM
Description: Inhibition of Wistar rat intestinal alpha alpha-trehalase at 1000 uM

[9] = Inhibition of rice alpha-glucosidase; parameters: species or system Oryza sativa
[10] = biological target: Sucrase-isomaltase, intestinal (Rattus norvegicus, UniProt P23739); test: Inhibition of Wistar rat intestinal sucrase
[11] = Inhibition of Caldocellum saccharolyticum beta-glucosidase; parameters: species or system Caldicellulosiruptor saccharolyticus
[12] = Inhibition of bovine liver beta-galactosidase; parameters: species or system Bos taurus
[13] = biological target: Lactase/phlorizin hydrolase (Rattus norvegicus, UniProt Q02401); test: Inhibition of Wistar rat intestinal lactase
[14] = Inhibition of almond beta-glucosidase; parameters: species or system Prunus dulcis
[15] = Inhibition of yeast alpha-glucosidase; parameters: species or system Saccharomyces cerevisiae
Uncharacterized protein = biological target: T3, Uncharacterized protein (Sus scrofa, UniProt I3LIR5); test: Inhibition of pig kidney alpha alpha-trehalase
T3 sequence (I3LIR5 whole entry): T2 sequence (whole entry)

[16] = Inhibition of Wistar rat intestinal alpha alpha-trehalase

Sequence of Lysosomal alpha-glucosidase (Rattus norvegicus) (Q6P7A9 whole entry): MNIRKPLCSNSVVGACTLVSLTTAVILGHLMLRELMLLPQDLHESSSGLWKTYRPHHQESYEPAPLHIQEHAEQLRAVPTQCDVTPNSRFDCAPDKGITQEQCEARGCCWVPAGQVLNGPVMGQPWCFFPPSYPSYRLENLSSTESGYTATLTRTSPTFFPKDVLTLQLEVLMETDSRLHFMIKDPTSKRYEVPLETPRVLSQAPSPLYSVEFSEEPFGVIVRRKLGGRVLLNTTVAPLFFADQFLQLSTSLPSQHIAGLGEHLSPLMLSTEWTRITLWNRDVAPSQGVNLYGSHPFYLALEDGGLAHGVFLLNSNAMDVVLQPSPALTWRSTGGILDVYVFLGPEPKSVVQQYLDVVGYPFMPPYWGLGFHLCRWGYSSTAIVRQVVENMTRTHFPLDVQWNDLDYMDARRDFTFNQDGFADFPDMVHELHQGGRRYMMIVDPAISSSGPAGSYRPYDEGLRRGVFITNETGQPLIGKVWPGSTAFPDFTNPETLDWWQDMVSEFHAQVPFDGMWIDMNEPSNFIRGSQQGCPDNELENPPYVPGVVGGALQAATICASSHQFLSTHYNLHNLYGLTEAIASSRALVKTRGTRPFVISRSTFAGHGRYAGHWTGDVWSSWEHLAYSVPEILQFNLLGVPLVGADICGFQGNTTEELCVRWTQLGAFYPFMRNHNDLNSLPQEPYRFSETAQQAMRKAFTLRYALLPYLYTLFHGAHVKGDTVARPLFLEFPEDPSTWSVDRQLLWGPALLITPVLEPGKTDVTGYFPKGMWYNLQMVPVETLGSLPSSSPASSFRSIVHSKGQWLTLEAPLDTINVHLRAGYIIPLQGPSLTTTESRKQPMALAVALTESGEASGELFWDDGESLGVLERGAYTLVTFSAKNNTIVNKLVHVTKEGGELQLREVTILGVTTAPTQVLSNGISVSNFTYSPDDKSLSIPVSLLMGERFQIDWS
Sequence of Sucrase-isomaltase, intestinal (Rattus norvegicus) (P23739 1-1013 limits assumed): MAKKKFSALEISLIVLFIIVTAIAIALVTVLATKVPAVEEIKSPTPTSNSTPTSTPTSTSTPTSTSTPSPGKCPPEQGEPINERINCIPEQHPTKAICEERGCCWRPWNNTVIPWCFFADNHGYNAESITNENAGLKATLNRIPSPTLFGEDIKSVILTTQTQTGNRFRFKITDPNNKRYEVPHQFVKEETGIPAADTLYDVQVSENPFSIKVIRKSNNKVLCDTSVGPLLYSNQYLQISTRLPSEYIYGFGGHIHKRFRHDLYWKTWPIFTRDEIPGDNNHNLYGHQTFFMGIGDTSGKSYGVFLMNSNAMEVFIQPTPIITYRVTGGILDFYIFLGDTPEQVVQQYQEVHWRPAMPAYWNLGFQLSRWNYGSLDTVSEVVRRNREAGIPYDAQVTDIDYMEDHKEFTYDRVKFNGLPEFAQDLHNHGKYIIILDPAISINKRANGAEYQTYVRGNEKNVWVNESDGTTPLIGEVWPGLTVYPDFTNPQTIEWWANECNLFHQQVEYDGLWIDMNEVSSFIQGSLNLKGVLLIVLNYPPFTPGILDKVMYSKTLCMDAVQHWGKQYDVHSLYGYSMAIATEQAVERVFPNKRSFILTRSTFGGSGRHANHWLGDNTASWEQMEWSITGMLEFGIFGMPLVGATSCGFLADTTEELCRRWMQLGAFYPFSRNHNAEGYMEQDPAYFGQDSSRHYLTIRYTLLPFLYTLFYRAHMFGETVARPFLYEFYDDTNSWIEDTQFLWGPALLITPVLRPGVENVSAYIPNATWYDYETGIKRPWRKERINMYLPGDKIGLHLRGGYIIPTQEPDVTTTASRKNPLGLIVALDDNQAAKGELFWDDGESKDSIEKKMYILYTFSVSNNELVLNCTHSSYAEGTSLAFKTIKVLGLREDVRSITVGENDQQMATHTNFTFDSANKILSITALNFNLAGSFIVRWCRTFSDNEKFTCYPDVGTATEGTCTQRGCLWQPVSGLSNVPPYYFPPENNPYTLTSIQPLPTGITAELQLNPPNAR
Sequence of Sucrase-isomaltase, intestinal (Rattus norvegicus) (P23739 1014-1841 limits assumed): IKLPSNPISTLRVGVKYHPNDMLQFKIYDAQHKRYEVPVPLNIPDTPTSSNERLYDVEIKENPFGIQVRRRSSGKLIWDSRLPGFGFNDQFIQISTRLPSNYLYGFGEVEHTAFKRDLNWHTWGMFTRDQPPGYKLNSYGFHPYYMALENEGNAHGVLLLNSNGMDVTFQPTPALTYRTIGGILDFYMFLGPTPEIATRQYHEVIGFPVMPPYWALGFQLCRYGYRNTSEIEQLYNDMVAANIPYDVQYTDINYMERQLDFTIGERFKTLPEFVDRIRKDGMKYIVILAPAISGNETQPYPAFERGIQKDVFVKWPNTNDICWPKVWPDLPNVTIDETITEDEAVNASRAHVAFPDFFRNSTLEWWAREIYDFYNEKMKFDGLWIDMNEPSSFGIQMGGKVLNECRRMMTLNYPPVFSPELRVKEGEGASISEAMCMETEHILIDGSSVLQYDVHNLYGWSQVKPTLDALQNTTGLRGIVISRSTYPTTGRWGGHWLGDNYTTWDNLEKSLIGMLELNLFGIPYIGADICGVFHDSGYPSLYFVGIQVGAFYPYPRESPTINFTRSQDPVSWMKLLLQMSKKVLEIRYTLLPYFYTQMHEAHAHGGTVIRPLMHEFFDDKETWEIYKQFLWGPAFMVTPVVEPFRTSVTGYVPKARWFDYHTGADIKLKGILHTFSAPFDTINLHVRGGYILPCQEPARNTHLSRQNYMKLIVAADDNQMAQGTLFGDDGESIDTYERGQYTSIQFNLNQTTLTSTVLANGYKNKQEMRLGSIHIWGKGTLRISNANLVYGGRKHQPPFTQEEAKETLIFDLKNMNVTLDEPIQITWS
Sequence of Lactase/phlorizin hydrolase (Q02401 868-1928 limits assumed): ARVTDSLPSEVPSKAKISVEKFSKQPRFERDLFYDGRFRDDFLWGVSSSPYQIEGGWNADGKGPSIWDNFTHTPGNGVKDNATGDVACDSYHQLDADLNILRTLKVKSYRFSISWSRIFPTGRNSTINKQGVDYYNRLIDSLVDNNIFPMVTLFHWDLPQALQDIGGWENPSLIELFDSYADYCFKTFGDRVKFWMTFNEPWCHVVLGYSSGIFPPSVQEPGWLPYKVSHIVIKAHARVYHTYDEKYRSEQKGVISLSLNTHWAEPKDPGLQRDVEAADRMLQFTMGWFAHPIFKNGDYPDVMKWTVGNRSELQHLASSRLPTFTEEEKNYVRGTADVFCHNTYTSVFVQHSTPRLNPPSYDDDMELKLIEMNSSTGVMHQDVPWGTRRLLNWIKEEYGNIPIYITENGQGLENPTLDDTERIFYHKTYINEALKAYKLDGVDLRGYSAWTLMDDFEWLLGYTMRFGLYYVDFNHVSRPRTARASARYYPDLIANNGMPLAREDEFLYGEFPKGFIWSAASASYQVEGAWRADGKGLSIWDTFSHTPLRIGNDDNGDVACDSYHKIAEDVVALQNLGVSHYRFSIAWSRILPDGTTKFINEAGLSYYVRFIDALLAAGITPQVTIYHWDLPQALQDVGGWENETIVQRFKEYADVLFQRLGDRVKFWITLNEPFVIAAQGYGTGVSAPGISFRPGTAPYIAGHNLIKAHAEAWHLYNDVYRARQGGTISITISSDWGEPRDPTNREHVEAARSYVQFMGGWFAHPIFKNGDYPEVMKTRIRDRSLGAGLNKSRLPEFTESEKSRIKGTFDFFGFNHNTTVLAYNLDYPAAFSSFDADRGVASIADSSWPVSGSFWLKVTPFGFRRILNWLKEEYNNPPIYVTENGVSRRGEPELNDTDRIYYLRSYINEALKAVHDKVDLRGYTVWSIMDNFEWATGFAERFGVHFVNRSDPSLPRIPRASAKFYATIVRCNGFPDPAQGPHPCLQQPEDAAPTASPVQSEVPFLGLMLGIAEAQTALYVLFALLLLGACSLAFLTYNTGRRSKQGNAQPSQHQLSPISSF
Sequence of Sucrase-isomaltase, intestinal (P23739 1-1013 limits assumed): as the sequence (P23739 1-1013 limits assumed) above
Sequence of Sucrase-isomaltase, intestinal (P23739 1014-1841 limits assumed): as the sequence (P23739 1014-1841 limits assumed) above
Sequence of Lactase/phlorizin hydrolase (Rattus norvegicus) (Q02401 868-1928 limits assumed): as the sequence (Q02401 868-1928 limits assumed) above

IC50 [1] [µM]	inhibition (Oryza sativa) [%]	inhibition [2] [%]	inhibition [3] [%]	inhibition [4] [%]	inhibition [5] [%]	inhibition [6] [%]	inhibition (Bos taurus) [%]	inhibition [7] [%]	inhibition [8] [%]	inhibition (Rattus norvegicus) [%]	IC50 [9] [µM]	IC50 [10] [µM]	IC50 [11] [µM]	IC50 [12] [µM]	IC50 [13] [µM]	Ki [14] [µM]	Ki [15] [µM]	IC50 (Uncharacterized protein) [µM]	IC50 [16] [µM]	SMILES
50	< 50	< 50	< 50	< 50	< 50	< 50	< 50	< 50	< 50	< 50										OCC[C@H]1N[C@@H](CO)[C@H](O)[C@H]1O
			< 50		< 50						130	300	3.8	4.4	4	1.5	54	5	2	OCC(O)[C@H]1N[C@H](CO)[C@@H](O)[C@@H]1O (mixture of isomers)
				< 50							200		11	2.5		10	7			OC[C@H]1N[C@H](CO)[C@@H](O)[C@@H]1O
			< 50						< 50		2.2	11	380	60	320				380	OCC[C@H]1N[C@H](CO)[C@@H](O)[C@@H]1O
